The text below walks through data of US20050287565A1, “Methods, compositions and compound assays for inhibiting amyloid-beta protein production” (priority 2004, published 2005).

Holding throughout (type): cell-based
The subject of test [1] is ADRA1A. As to the kind of experiment: ADRA1A agonist and antagonist validation in Hek293 APPwt cells, amyloid beta ELISA. The text has this: (§1) To identify novel drug targets that change the APP processing, stable cell lines over expressing APP are made by transfecting Hek293 or SH-SY5Y cells with APP770 wt cDNA cloned into pcDNA3.1, followed by selection with G418 for 3 weeks. At this time point colonies are picked and stable clones are expanded and tested for their secreted amyloid-beta peptide levels. The cell lines designated as “Hek293 APPwt” and “SH-SY5Y APPwt” are used in the assays.
Hek293 APPwt Assay: Cells seeded in collagen-coated plates at a cell density of 15000 cells/well (384 well plate) in DMEM (10% FBS), are infected 24 h later with 1 μl or 0.2 μl of adenovirus (corresponding to an average multiplicity of infection (MOI) of 120 and 24 respectively). The following day, the virus is washed away and DMEM (25 mM Hepes; 10% FBS) is added to the cells. Amyloid-beta peptides are allowed to accumulate during 24 h.
(§2) ELISA: The ELISA plate is prepared by coating with a capture antibody (JRF/cAbeta42/26) (the antibody recognizes a specific epitope on the C-terminus of Abeta 1-42; obtained from M Mercken, Johnson and Johnson Pharmaceutical Research and Development, B-2340 Beerse, Belgium) overnight in buffer 42 (Table 2) at a concentration of 2.5 μg/ml. The excess capture antibody is washed away the next morning with PBS and the ELISA plate is then blocked overnight with casein buffer (see Table 2) at 4° C. Upon removal of the blocking buffer, 30 μl of the sample is transferred to the ELISA plate and incubated overnight at 4° C. After extensive washing with PBS-Tween20 and PBS, 30 μl of the horseradish peroxidase (HRP) labeled detection antibody (Peroxidase Labeling Kit, Roche), JRF/AbetaN/25-HRP (obtained from M Mercken, Johnson and Johnson Pharmaceutical Research and Development, B-2340 Beerse, Belgium) is diluted 1/5000 in buffer C (see Table 2) and added to the wells for another 2 h. Following the removal of excess detection antibody by a wash with PBS-Tween20 and PBS, HRP activity is detected via addition of luminol substrate (Roche), which is converted into a chemiluminescent signal by the HRP enzyme.
In addition, for the SH-SY5Y APPwt assay, the samples are also analyzed in an amyloid beta x-42 ELISA. This ELISA detects all amyloid beta peptide species ending at position 42, comprising 1-42, 11-42 and 17-42 (p3), which originate respectively from BACE activity at position 1 and 11, and alpha secretase activity at position 17. Thus, in addition to the amyloidogenic pathway, the non-amyloidogenic pathway is also monitored. The protocol for the Abeta x-42 ELISA is identical to the protocol for the Abeta 1-42 ELISA, except that a HRP labeled 4G8 antibody (Signet; the antibody recognizes a specific epitope in the center of the Abeta peptides) is used as detection antibody. […]
In general terms: ELISA stands for enzyme-linked immunosorbent assay.

Test [2] has as its system ADRA1A. As to the kind of experiment: ADRA1A agonist and antagonist validation in SH-SY5Y APPwt cells, amyloid beta ELISA. The protocol: as §1
SH-SY5Y APPwt Assay: Cells are seeded in collagen-coated plates at a cell density of 15000 cells/well (384 well plate) in Dulbecco's MEM with Glutamax I+15% FBS HI+non-essential amino acids+Geneticin 500 μg/ml. The cells are differentiated towards the neuronal phenotype by adding 9-cis retinoic acid to a final concentration of 1 μM on day 1, day 3, day 5 and day 8. On day 9, the cells are infected with 1 μl of adenovirus (corresponding to an average multiplicity of infection (MOI) of 120 respectively). The following day, the virus is washed away and DMEM 25 mM Hepes 10% FBS is added to the cells. Amyloid beta peptides are allowed to accumulate for 24 h.
as §2
In addition, for the SH-SY5Y APPwt assay, the samples are also analyzed in an amyloid beta x-42 ELISA. This ELISA detects all amyloid beta peptide species ending at position 42, comprising 1-42, 11-42 and 17-42 (p3), which originate respectively from BACE activity at position 1 and 11, and alpha secretase activity at position 17. Thus, in addition to the amyloidogenic pathway, the non-amyloidogenic pathway is also monitored. […]

The target in test [3] is TACR1 (Homo sapiens, UniProt P25103). As to the kind of experiment: TACR1 agonist and antagonist validation in Hek293 APPwt cells, amyloid beta ELISA. The settings on record: Hek293 APPwt cells infected with Ad5/TACR1_v1.
Description: ELISA: The ELISA plate is prepared by coating with a capture antibody (JRF/cAbeta42/26) (the antibody recognizes a specific epitope on the C-terminus of Abeta 1-42; obtained from M Mercken, Johnson and Johnson Pharmaceutical Research and Development, B-2340 Beerse, Belgium) overnight in buffer 42 (Table 2) at a concentration of 2.5 μg/ml. The excess capture antibody is washed away the next morning with PBS and the ELISA plate is then blocked overnight with casein buffer (see Table 2) at 4° C. Upon removal of the blocking buffer, 30 μl of the sample is transferred to the ELISA plate and incubated overnight at 4° C. […]
In addition, for the SH-SY5Y APPwt assay, the samples are also analyzed in an amyloid beta x-42 ELISA. […] Thus, in addition to the amyloidogenic pathway, the non-amyloidogenic pathway is also monitored. […]
[4] abbreviates: Hek293 APPwt cells infected with Ad5/ADRA1A_v1, increasing amounts of agonist, 24 h, concentration dependent.
Setting [5] is: SH-SY5Y APPwt cells infected with Ad5/ADRA1A_v1, increasing amounts of agonist, 24 h, concentration dependent.

TACR1, sequence (P25103 whole entry): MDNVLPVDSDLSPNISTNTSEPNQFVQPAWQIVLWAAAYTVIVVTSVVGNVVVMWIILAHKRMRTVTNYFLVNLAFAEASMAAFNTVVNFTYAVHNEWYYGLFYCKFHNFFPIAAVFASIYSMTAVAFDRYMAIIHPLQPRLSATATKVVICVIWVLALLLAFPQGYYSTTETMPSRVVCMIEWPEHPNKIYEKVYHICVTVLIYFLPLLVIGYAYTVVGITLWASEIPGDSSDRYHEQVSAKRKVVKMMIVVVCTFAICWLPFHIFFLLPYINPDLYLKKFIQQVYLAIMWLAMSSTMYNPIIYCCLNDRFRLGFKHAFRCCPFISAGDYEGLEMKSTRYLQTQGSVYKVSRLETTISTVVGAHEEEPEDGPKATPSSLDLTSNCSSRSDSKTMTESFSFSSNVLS

`Br.CS(=O)(=O)Nc1c(O)ccc2c1CCCC2C1=NCCN1` (stereo not shown) [A61603]: the “amount of amyloid beta 1-42 secreted in the medium” value in test [1] (setting [4]) is given as “decreased”; in test [2] (setting [5]), “increased”. The “amount of amyloid beta x-42 secreted in the medium” value in test [1] (setting [4]) and in test [2] (setting [5]) was “increased” each time.

On to `Cl.FC(F)(F)c1cc(CO[C@H]2CCCN[C@H]2c2ccccc2)cc(C(F)(F)F)c1` [L-733,060 hydrochloride], for which the “observed Substance P EC50 values with increasing concentration of the antagonist” value in test [3] (amyloid beta x-42 ELISA, 0.1, 1 and 10 μM antagonist) is listed as “increased”. Further, in test [3] (substance P plus fixed 0.1, 1 and 10 μM antagonist, 24 h, concentration dependent), the “amount of amyloid beta x-42 secreted in the medium” value is “reduces”.

`CC(C)(Cc1c[nH]c2ccc(Cl)cc12)NCCOc1ccccc1OCC1CC1.Cl` [RS-17053 hydrochloride]: in test [1] (Hek293 APPwt cells infected with Ad5/ADRA1A_v1, A61603 plus fixed 0.1 and 1 μM antagonist, 24 h, concentration dependent), the “amount of amyloid beta x-42 secreted in the medium” value is listed as “reduced”. For the same molecule, the “observed EC50 values (agonist A61603) with increasing concentration of the antagonist” value in test [1] (Hek293 APPwt cells, amyloid beta x-42 ELISA, 0.1 and 1 μM antagonist) is “increased”; in test [2] (SH-SY5Y APPwt cells, amyloid beta 1-42 ELISA, 0.1 and 1 μM antagonist), “increased”. For the same molecule, in test [2] (SH-SY5Y APPwt cells infected with Ad5/ADRA1A_v1, A61603 plus fixed 0.1 and 1 μM antagonist, 24 h, concentration dependent), the “amount of amyloid beta 1-42 secreted in the medium” value was “reduced”.
